According to ChEMBL document CHEMBL5104164, “Design, synthesis, and biological evaluation of pyrrolopyrimidine derivatives as novel Bruton's tyrosine kinase (BTK) inhibitors” (Eur J Med Chem, 2022):

Tests used:
[1] = Tmax in male BALB/c mouse at 2 mg/kg, iv; type: ADME, organism-based; details: in vivo
[2] = Oral bioavailability in male BALB/c mouse; type: ADME, organism-based; details: in vivo
[3] = Tmax in male BALB/c mouse at 10 mg/kg, po; type: ADME, organism-based; details: in vivo
[4] = molecular target: T1, Tyrosine-protein kinase JAK3 (Homo sapiens) (UniProt P52333); assay: Inhibition of Jak3 (unknown origin) assessed as residual percent of control at 1 uM measured by DiscoverX kinome scan assay relative to control
T1 sequence (whole entry): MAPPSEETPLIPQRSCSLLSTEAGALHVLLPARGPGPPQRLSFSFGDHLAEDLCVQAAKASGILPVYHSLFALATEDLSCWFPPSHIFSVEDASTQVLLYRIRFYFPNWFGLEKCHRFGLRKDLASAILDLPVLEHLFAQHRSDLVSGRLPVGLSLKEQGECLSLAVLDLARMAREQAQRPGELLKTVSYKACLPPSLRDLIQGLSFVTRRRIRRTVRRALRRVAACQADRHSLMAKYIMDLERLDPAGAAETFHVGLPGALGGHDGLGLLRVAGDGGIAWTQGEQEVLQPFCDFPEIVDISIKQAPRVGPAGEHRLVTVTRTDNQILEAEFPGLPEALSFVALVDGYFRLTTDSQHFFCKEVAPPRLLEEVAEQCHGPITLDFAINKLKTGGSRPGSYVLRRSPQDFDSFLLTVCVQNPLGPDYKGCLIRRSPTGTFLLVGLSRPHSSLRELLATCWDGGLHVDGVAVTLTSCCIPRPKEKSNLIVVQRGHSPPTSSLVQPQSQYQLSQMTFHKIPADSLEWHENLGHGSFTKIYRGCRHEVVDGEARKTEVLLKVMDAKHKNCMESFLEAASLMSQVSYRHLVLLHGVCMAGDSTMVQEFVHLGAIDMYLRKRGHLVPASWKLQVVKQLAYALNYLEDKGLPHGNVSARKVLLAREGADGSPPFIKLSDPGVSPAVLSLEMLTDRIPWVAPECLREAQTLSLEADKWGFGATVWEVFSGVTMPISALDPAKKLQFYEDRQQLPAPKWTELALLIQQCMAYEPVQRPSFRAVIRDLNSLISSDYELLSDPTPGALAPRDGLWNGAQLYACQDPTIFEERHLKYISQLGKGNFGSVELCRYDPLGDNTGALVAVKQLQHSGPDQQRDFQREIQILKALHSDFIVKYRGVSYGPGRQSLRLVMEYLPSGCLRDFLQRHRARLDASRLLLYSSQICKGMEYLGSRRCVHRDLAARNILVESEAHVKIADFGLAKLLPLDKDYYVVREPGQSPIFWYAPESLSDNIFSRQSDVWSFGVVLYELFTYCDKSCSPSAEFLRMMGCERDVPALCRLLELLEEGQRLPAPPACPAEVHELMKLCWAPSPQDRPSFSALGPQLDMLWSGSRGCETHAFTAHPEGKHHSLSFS

[5] = molecular target: Epidermal growth factor receptor (Homo sapiens) (UniProt P00533); assay: Inhibition of EGFR (unknown origin) assessed as residual percent of control at 1 uM measured by DiscoverX kinome scan assay relative to control
Rec1 = assay: Antiproliferative activity against human REC1 cells incubated for 72 hrs by CellTiter-Glo assay; type: functional, cell-based; details: Rec1, 72 h
[6] = Antiproliferative activity against human MINO cells incubated for 72 hrs by CellTiter-Glo assay; type: functional, cell-based
Ramos = assay: Antiproliferative activity against human Ramos cells incubated for 72 hrs by CellTiter-Glo assay; type: functional, cell-based
TMD8 [7] = assay: Cell cycle arrest in human TMD8 cells assessed as accumulation of cells at G2 phase at 1 nM after 48 hrs by propidium iodide staining based flow cytometric analysis (reference value: 13.4%); type: functional
TMD8 [8] = assay: Cell cycle arrest in human TMD8 cells assessed as accumulation of cells at G2 phase at 10 nM after 48 hrs by propidium iodide staining based flow cytometric analysis (reference value: 13.4%); type: functional
TMD8 [9] = assay: Cell cycle arrest in human TMD8 cells assessed as accumulation of cells at S phase at 100 nM after 48 hrs by propidium iodide staining based flow cytometric analysis (reference value: 49.3%); type: functional
TMD8 [10] = assay: Induction of apoptosis in human TMD8 cells assessed as apoptotic cells 10 nM incubated for 72 hrs by AnnexinV-FITC/propidium iodide staining based flow cytometric analysis; type: functional
TMD8 [11] = assay: Induction of apoptosis in human TMD8 cells assessed as apoptotic cells 100 nM incubated for 72 hrs by AnnexinV-FITC/propidium iodide staining based flow cytometric analysis; type: functional
[12] = Toxicity in female CB-17 SCID nude mouse xenografted with human TMD8 cells assessed as reduction in lymphocytes at 50 mg/kg, po administered twice daily for 21 days; type: organism-based; details: in vivo, 504 h, time 21 day
[13] = Toxicity in female CB-17 SCID nude mouse xenografted with human TMD8 cells assessed as effect on platelets at 50 mg/kg, po administered twice daily for 21 days; type: organism-based; details: in vivo, 504 h, time 21 day
[14] = Mutagenicity in Salmonella typhimurium TA98 at 1.5 to 1000 ug per plate in presence of liver microsomes by AMES test; type: toxicity, Salmonella enterica subsp. enterica serovar Typhimurium; details: dose 1.5-1000 µg

Sequence of Epidermal growth factor receptor (Homo sapiens) (P00533 whole entry): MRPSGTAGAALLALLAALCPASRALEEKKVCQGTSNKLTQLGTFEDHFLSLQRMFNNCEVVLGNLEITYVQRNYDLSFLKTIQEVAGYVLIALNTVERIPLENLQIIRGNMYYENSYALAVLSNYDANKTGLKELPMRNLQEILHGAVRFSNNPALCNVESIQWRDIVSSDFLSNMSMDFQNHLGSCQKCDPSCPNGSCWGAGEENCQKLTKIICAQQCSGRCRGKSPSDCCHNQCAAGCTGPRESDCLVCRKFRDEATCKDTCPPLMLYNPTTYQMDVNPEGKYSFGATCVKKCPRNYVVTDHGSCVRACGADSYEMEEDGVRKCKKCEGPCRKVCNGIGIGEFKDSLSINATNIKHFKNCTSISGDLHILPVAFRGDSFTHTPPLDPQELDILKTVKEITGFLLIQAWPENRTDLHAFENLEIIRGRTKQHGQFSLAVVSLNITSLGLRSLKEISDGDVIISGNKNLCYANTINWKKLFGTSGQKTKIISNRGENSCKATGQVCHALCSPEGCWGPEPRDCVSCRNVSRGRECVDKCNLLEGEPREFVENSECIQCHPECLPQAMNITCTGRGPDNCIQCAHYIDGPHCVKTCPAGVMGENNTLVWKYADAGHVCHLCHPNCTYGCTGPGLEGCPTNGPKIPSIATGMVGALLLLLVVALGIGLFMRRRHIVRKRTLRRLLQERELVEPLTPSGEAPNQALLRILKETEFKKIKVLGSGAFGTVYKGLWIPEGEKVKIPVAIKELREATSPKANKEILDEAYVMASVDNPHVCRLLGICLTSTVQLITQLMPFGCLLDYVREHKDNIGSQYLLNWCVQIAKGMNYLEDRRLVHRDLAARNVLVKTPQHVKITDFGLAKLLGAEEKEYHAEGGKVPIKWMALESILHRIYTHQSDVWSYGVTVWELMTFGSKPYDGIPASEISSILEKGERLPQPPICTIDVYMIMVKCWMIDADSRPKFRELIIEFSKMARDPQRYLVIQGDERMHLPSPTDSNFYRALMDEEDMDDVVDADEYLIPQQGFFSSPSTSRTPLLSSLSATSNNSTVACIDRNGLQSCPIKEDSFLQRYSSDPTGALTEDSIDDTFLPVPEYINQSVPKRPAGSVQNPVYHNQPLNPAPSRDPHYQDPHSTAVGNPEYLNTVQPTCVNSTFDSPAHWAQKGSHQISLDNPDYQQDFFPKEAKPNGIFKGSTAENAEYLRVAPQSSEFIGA

`C=CC(=O)N1CC=C(c2c[nH]c3ncnc(-c4ccc(CNC(=O)c5ccccc5)c(F)c4)c23)CC1` showed a Tmax [1] of 1.8 min, a bioavailability [2] of 41% and a Tmax [3] of 23.4 min. The Activity [4] was 3.8%, the Activity [5] was 44% and the IC50 (Rec1) was 0.0017 µM. The IC50 [6] was > 10 µM, the IC50 (Ramos) was > 10 µM and the Activity (TMD8 [7]) was 11.8%. It also gave an Activity (TMD8 [8]) of 8.7%, an Activity (TMD8 [9]) of 24.6% and an Activity (TMD8 [10]) of 19%. For the same compound, the Activity (TMD8 [11]) was 25.2%, the Activity [12] was “Toxic” and the Activity [13] was “Non-Toxic”. For the same compound, the Activity [14] was “Non-Toxic”.
